In PMC5432571 (Frontiers in Molecular Neuroscience, 2017):
Where two headings read alike, the source gives them in different places.

Tests used:
[1] = biological target: T1, α2 GlyR (Homo sapiens, UniProt P23416); assay: Whole-cell patch-clamp of glycine-induced currents, α2 GlyR expressed in CHO cells; type: cell-based; conditions: for glycine-evoked current, % from the control: NFA 10 μM
T1 construct: expressed in transfected cells; host or cells: CHO cells
T1 sequence (P23416 28-452 isoform P23416-2 limits assumed): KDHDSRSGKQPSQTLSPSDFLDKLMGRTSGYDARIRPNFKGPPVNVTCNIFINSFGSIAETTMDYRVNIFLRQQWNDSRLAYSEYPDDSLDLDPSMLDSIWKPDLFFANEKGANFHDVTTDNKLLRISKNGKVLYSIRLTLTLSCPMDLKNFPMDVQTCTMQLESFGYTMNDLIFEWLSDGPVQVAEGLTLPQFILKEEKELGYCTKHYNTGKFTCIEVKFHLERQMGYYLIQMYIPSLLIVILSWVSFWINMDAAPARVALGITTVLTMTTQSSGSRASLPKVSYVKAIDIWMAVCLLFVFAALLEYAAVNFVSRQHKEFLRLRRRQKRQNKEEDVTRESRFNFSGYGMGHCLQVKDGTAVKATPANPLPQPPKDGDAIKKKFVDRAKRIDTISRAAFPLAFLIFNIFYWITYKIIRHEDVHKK
Method: (§1) The experiments were carried out on cultured Chinese hamster ovary (CHO) cells obtained from the American Type Tissue Culture Collection (ATCC, Molsheim, France) that were maintained in culture conditions as previously described (Mukhtarov et al., [2013]; Maleeva et al., [2015]).
(§2) One day before transfection, cells were plated on the cover slips (12 mm in diameter) and placed inside 35-mm cell culture dishes with 2 ml of medium. Transfection was performed using the Lipofectamine 3000 protocol (Life Technology, USA). To facilitate identification of transfected cells a green fluorescent protein (GFP) was added to the transfection mixture. For expression of functional heteromeric receptors, cells were simultaneously transfected with cDNAs of α and β subunits in the ratio 1:10. Three hours after the initial exposure of cells to the cDNAs the culture medium was replaced with that containing strychnine (1 μM), which prevents spontaneous activation of GlyRs. Electrophysiological recordings were performed in the fluorescent cells 24–72 h after transfection.
(§3) Whole-cell and outside-out recordings were performed at room temperature (20–25°C) using an EPC-9 amplifier (HEKA Elektronik, Germany). Cells were continuously superfused with external solution containing (mM): NaCl 140, CaCl2 2, KCl 2.8, MgCl2 4, HEPES 20, glucose 10; pH 7.4; 320–330 mOsm. Intracellular solution used for filling recording patch pipettes contained (mM): CsCl 140, CaCl2 6, MgCl2 2, MgATP 2, NaGTP 0.4, HEPES/CsOH 10, BAPTA (tetrapotassium salt) 2; pH 7.3; 290 mOsm. Two different protocols of solutions application were used in this study. […] A “ramp protocol” implies the gradual change of Vhold alternately from −80 to +80 mV and from +80 to −80 mV during 1 s, Vhold was fixed at −80 or +80 mV at the beginning and at the end of the ramp for 500 ms (Figure 2B).
(§4) Recording pipettes were pulled from borosilicate glass capillaries (Harvard Apparatus Ltd, USA) and had resistances of 5–10 MOhm. For the rapid replacement of the solutions, the fast application system was used. Three parallel rectangular tubes (100 × 100 μm) were positioned 40–50 μm above the recorded cell. The movement of the tubes was controlled by a computer-driven fast exchange system (SF 77A Perfusion Fast-Step, Warner, USA) allowing a 10–90% solution exchange in 3–5 ms, as measured by open electrode controls (1/10 external solution/water). Cells with low input resistance (<150 MOhm) and a rapid run-down (>30% with repetitive application) were excluded from analysis.
(§5) Electrophysiological recordings were performed using PatchMaster (HEKA Electronic, Germany) software.
The fractional electrical distance from the external side of the membrane (δ) at which bound NFA blocked the current was calculated using the Woodhull equation: IC50(V)=IC50(0) exp (−δFV/RT), where IC50(V) is IC50 at the given membrane potential, IC50(0) – at 0 mV, V – membrane potential and F, R, T have their usual meanings. δ was determined from a plot of IC50 values against membrane potential.

[2] = biological target: T2, α1β GlyR (Homo sapiens, UniProt P23415+P48167); assay: Whole-cell patch-clamp of glycine-induced currents, heteromeric α1β GlyR expressed in CHO cells; type: cell-based; conditions: glycine 30 μM
T2 construct: expressed in transfected cells; host or cells: CHO cells
T2 sequence (P23415 29-449 isoform P23415-2 limits assumed): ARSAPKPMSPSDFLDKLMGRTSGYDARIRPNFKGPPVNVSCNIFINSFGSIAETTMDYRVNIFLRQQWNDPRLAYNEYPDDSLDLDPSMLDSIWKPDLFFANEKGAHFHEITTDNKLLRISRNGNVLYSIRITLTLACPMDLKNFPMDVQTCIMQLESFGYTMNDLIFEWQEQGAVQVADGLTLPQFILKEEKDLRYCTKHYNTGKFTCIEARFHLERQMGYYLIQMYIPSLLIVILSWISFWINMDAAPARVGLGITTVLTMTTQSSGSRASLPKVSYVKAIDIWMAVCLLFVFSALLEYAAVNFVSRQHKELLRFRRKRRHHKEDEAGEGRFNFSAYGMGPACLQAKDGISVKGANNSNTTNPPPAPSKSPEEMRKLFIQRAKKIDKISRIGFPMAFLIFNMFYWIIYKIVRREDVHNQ
T2 sequence (P48167 23-497): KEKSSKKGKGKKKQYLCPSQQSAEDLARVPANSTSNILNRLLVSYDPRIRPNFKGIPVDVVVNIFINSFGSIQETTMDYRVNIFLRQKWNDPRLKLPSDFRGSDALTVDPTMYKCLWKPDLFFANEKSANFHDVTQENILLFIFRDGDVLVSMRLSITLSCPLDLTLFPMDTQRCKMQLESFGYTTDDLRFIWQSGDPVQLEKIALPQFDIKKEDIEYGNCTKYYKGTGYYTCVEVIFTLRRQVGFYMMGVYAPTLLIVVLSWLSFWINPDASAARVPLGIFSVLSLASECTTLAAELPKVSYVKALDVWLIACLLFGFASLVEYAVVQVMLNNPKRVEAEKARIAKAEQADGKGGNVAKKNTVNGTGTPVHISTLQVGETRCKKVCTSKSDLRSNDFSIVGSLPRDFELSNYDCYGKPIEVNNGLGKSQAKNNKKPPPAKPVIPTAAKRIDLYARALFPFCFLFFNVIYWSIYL
Method: as §1, §2, §3, §4, §5

O=C(O)c1cccnc1Nc1cccc(C(F)(F)F)c1 [NFA, Niflumic acid]
IC50 ([1]; +30 mV, glycine 30 μM, representative, read-out: NFA IC50 (representative IC50 curve)): 17 µM | IC50 ([1]; +30 mV, glycine 100 μM, representative, read-out: NFA IC50 (representative IC50 curve)): 12 µM | IC50 ([1]; +80 mV, glycine 30 μM, ramp protocol, mean ± SEM, read-out: IC50 of NFA): 9 ± 2 µM | IC50 ([1]; +80 mV, glycine 30 μM, representative, read-out: NFA IC50 (representative IC50 curve)): 12 µM | IC50 ([1]; +80 mV, glycine 100 μM, ramp protocol, mean ± SEM, read-out: IC50 of NFA): 9 ± 2 µM | IC50 ([1]; +80 mV, glycine 100 μM, representative, read-out: NFA IC50 (representative IC50 curve)): 7 µM | inhibition at 10 µM ([1]; CHO): ~50% | glycine-evoked current, % from the control ([1]; MP +80 mV): 43 ± 5% | glycine-evoked current, % from the control ([1]; MP −80 mV): 89 ± 4% | Hill coefficient (nH) of NFA interaction ([1]; membrane potential 30 mV, glycine 30 μM): 1.1 ± 0.14 | Hill coefficient (nH) of NFA interaction ([1]; membrane potential 50 mV, glycine 30 μM): 1 ± 0.14 | Hill coefficient (nH) of NFA interaction ([1]; membrane potential 70 mV, glycine 30 μM): 1 ± 0.13 | Hill coefficient (nH) of NFA interaction ([1]; membrane potential 80 mV, glycine 30 μM): 0.97 ± 0.09 | Hill coefficient (nH) of NFA interaction ([1]; membrane potential −50 mV, glycine 30 μM): 1.14 ± 0.12 | Hill coefficient (nH) of NFA interaction ([1]; membrane potential −70 mV, glycine 30 μM): 1.04 ± 0.08 | Hill coefficient (nH) of NFA interaction ([1]; membrane potential −80 mV, glycine 30 μM): 1.05 ± 0.06 | Hill coefficient (nH) of NFA inhibitory action ([1]; overall statement in discussion): ~1 | IC50 ([1]; read-out: IC50 of NFA): 133 ± 20 µM | IC50 ([1]; −30 mV, glycine 30 μM, representative, read-out: NFA IC50 (representative IC50 curve)): 75 µM | IC50 ([1]; −30 mV, glycine 100 μM, representative, read-out: NFA IC50 (representative IC50 curve)): 39 µM | IC50 ([1]; −80 mV, glycine 30 μM, ramp protocol, mean ± SEM, read-out: IC50 of NFA): 166 ± 28 µM | IC50 ([1]; −80 mV, glycine 30 μM, representative, read-out: NFA IC50 (representative IC50 curve)): 155 µM | IC50 ([1]; −80 mV, glycine 100 μM, representative, read-out: NFA IC50 (representative IC50 curve)): 100 µM | IC50 ([2]; +30 mV, representative, read-out: NFA IC50 (representative IC50 curve)): 152 µM | IC50 ([2]; +80 mV, mean ± SEM, read-out: IC50 of NFA): 150 ± 14 µM | IC50 ([2]; +80 mV, representative, read-out: NFA IC50 (representative IC50 curve)): 144 µM | IC50 ([2]; −30 mV, representative, read-out: NFA IC50 (representative IC50 curve)): 200 µM | IC50 ([2]; −80 mV, representative, read-out: NFA IC50 (representative IC50 curve)): 191 µM
